The text below walks through data of ChEMBL document CHEMBL3992562, “Multifunctional thioxanthone derivatives with acetylcholinesterase, monoamine oxidases and β-amyloid aggregation inhibitory activities as potential agents against Alzheimer's disease” (Bioorg Med Chem, 2017).

A word on the IC50: it is the midpoint of a concentration-inhibition curve. As usually defined, the inhibition is the relative decrease from the control value, in per cent.

A value given as a limit tells only on which side of the number the result lay.

Sequence of Acetylcholinesterase (O42275 whole entry): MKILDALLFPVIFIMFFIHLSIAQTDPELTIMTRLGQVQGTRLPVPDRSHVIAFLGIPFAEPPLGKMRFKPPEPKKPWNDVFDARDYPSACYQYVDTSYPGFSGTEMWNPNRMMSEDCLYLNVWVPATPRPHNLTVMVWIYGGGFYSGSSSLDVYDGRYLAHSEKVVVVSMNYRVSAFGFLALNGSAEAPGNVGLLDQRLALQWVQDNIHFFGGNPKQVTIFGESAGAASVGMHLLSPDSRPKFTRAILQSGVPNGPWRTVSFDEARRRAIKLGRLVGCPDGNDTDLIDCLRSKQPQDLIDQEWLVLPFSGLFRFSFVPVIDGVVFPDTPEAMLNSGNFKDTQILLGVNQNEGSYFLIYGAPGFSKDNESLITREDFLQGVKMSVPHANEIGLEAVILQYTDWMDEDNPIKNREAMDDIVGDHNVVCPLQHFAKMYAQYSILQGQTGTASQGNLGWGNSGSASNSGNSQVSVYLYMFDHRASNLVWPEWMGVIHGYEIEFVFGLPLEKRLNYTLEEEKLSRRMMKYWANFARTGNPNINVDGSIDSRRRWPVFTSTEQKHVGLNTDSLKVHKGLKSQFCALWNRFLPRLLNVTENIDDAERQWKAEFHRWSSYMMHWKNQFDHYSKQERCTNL

The first series has as its target Acetylcholinesterase (Electrophorus electricus, UniProt O42275). The experiment in a line: Inhibition of electric eel AChE using acetylthiocholine iodide as substrate measured after 15 mins by Ellman's method.
Settings: not given
In general terms: DTNB colorimetry detects thiols as they appear.
The molecule `CCN(CCCCCCOc1cc(O)c2c(=O)c3ccccc3sc2c1)Cc1ccc(N(C)C)cc1` registered an IC50 of 33800 nM.

The molecule `CCN(CCCCOc1cc(O)c2c(=O)c3ccccc3sc2c1)Cc1ccccc1N(C)C` showed an IC50 of 2880 nM.

Turning to `COc1ccccc1CN(C)CCCCOc1cc(O)c2c(=O)c3ccccc3sc2c1`, the midpoint of inhibition, the IC50, lay at 9160 nM.

In turn, `O=c1c2ccccc2sc2cc(O)cc(O)c12` came in with an IC50 of 38900 nM.

Take `CN(CCCCCCOc1cc(O)c2c(=O)c3ccccc3sc2c1)Cc1ccccc1`: half-maximal inhibition (IC50) was put at 320 nM.

On to `CCN(CCCCOc1cc(O)c2c(=O)c3ccccc3sc2c1)Cc1ccccc1`, for which the IC50 was determined as 22000 nM.

Consider `CCN(CCCOc1cc(O)c2c(=O)c3ccccc3sc2c1)Cc1ccccc1OC`, for which the concentration for half-maximal inhibition (IC50) was 2790 nM.

`CCN(CCCCOc1cc(O)c2c(=O)c3ccccc3sc2c1)Cc1ccc(N(C)C)cc1`: the IC50 turned out to be 25400 nM.

The next series deals with BuChE (butyrylcholinesterase). Description: Inhibition of rat serum BuChE at 50 uM using S-butylthiocholine iodide as substrate measured after 15 mins by Ellman's method relative to control. The conditions noted are these: probe S-butylthiocholine iodide.
`CCN(CCCCOc1ccc(-c2coc3cc(OCCCCN(CC)Cc4ccccc4OC)cc(O)c3c2=O)cc1)Cc1ccccc1OC`: the inhibition at 0.25 h, 50 µM was determined as 20%.

In the case of `CCN(CCCCCCOc1cc(O)c2c(=O)c3ccccc3sc2c1)Cc1ccc(N(C)C)cc1`, the inhibition at 0.25 h, 50 µM was less than 5%.

`CCN(CCCCOc1cc(O)c2c(=O)c3ccccc3sc2c1)Cc1ccccc1N(C)C` gave an inhibition at 0.25 h, 50 µM of 30.3%.

`COc1ccccc1CN(C)CCCCOc1cc(O)c2c(=O)c3ccccc3sc2c1` yielded an inhibition at 0.25 h, 50 µM of 5.62%.

As to `O=c1c2ccccc2sc2cc(O)cc(O)c12`, the inhibition at 0.25 h, 50 µM is less than 5%.

Consider `CN(CCCCCCOc1cc(O)c2c(=O)c3ccccc3sc2c1)Cc1ccccc1`, for which the inhibition at 0.25 h, 50 µM was less than 5%.

On to `CCN(CCCCOc1cc(O)c2c(=O)c3ccccc3sc2c1)Cc1ccccc1`, for which the inhibition at 0.25 h, 50 µM was less than 5%.

As to `CCN(CCCOc1cc(O)c2c(=O)c3ccccc3sc2c1)Cc1ccccc1OC`, the inhibition at 0.25 h, 50 µM came to 17.3%.

In the case of `CCN(CCCCOc1cc(O)c2c(=O)c3ccccc3sc2c1)Cc1ccc(N(C)C)cc1`, the inhibition at 0.25 h, 50 µM worked out at 7.15%.

Another series has as its target T1, Amine oxidase [flavin-containing] A (Homo sapiens, UniProt P21397).
T1 sequence (P21397 whole entry): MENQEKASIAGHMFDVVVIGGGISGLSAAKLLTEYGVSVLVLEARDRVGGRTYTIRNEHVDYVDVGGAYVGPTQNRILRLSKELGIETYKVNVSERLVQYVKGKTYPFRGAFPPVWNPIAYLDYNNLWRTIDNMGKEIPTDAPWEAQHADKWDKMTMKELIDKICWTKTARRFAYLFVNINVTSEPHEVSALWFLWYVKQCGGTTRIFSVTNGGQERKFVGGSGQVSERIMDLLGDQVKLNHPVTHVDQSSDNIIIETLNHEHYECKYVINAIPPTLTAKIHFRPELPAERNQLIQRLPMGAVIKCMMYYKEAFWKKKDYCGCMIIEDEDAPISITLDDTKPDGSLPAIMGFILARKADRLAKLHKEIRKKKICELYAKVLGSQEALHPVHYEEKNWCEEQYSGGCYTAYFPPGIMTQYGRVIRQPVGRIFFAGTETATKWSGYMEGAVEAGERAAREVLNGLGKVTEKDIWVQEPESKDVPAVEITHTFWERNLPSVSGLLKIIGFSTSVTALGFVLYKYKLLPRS
The experiment in a line: Inhibition of recombinant human MAO-A expressed in baculovirus infected BTI insect cells using kynuramine as substrate after 30 mins by fluorimetric method.
Settings: not given
`CCN(CCCCCCOc1cc(O)c2c(=O)c3ccccc3sc2c1)Cc1ccc(N(C)C)cc1`: the IC50 came out at 1250 nM.

`CCN(CCCCOc1cc(O)c2c(=O)c3ccccc3sc2c1)Cc1ccccc1N(C)C`: the concentration for half-maximal inhibition (IC50) was 1540 nM.

Consider `COc1ccccc1CN(C)CCCCOc1cc(O)c2c(=O)c3ccccc3sc2c1`, for which the concentration for half-maximal inhibition (IC50) came to 620 nM.

As to `O=c1c2ccccc2sc2cc(O)cc(O)c12`, the half-inhibitory concentration (IC50) amounted to 280 nM.

As for `CN(CCCCCCOc1cc(O)c2c(=O)c3ccccc3sc2c1)Cc1ccccc1`, the 50% inhibitory concentration (IC50) was 570 nM.

Take `CCN(CCCCOc1cc(O)c2c(=O)c3ccccc3sc2c1)Cc1ccccc1`: the 50% inhibitory concentration (IC50) was 340 nM.

As to `CCN(CCCOc1cc(O)c2c(=O)c3ccccc3sc2c1)Cc1ccccc1OC`, the IC50 is 8170 nM.

As for `CCN(CCCCOc1cc(O)c2c(=O)c3ccccc3sc2c1)Cc1ccc(N(C)C)cc1`, the IC50 was determined as 1000 nM.

The target in another series is T2, Amine oxidase [flavin-containing] B (Homo sapiens, UniProt P27338).
T2 sequence (P27338 whole entry): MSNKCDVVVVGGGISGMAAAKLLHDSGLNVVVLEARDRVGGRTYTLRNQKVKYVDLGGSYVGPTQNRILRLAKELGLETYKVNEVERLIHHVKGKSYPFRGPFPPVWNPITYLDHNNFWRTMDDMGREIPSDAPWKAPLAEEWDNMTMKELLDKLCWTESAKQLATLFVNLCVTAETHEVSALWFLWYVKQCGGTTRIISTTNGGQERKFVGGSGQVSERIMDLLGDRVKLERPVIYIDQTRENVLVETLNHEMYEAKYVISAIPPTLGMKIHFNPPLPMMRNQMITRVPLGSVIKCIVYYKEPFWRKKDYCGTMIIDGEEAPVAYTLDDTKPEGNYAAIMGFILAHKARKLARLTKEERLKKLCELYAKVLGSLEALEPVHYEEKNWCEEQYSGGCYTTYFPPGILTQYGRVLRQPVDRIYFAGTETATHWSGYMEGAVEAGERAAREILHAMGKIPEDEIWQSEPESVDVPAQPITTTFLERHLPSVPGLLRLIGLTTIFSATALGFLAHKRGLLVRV
Description: Inhibition of recombinant human MAO-B expressed in baculovirus infected BTI insect cells using kynuramine as substrate after 30 mins by fluorimetric method.
Settings: not given
It counts as cell-based.
`CCN(CCCCCCOc1cc(O)c2c(=O)c3ccccc3sc2c1)Cc1ccc(N(C)C)cc1`: the concentration for half-maximal inhibition (IC50) was found to be 390 nM.

Turning to `CCN(CCCCOc1cc(O)c2c(=O)c3ccccc3sc2c1)Cc1ccccc1N(C)C`, the IC50 stood at 2020 nM.

On to `COc1ccccc1CN(C)CCCCOc1cc(O)c2c(=O)c3ccccc3sc2c1`, for which the IC50 was found to be 590 nM.

Consider `O=c1c2ccccc2sc2cc(O)cc(O)c12`, for which the half-inhibitory concentration (IC50) was 300 nM.

In the case of `CN(CCCCCCOc1cc(O)c2c(=O)c3ccccc3sc2c1)Cc1ccccc1`, the IC50 was 350 nM.

Turning to `CCN(CCCCOc1cc(O)c2c(=O)c3ccccc3sc2c1)Cc1ccccc1`, the concentration for half-maximal inhibition (IC50) was 270 nM.

For `CCN(CCCOc1cc(O)c2c(=O)c3ccccc3sc2c1)Cc1ccccc1OC`, the half-maximal inhibitory concentration (IC50) worked out at 1880 nM.

As to `CCN(CCCCOc1cc(O)c2c(=O)c3ccccc3sc2c1)Cc1ccc(N(C)C)cc1`, the IC50 is 2200 nM.

For another series, the species on record is Homo sapiens. The experiment in a line: Selectivity index, ratio of IC50 for recombinant human MAO-A expressed in baculovirus infected BTI insect cells to IC50 for recombinant human MAO-B expressed in baculovirus infected BTI insect cells.
Settings: not given
Consider `CCN(CCCCCCOc1cc(O)c2c(=O)c3ccccc3sc2c1)Cc1ccc(N(C)C)cc1`, for which the Ratio IC50 was 3.21.

Turning to `CCN(CCCCOc1cc(O)c2c(=O)c3ccccc3sc2c1)Cc1ccccc1N(C)C`, the Ratio IC50 was 0.76.

Regarding `COc1ccccc1CN(C)CCCCOc1cc(O)c2c(=O)c3ccccc3sc2c1`, the Ratio IC50 was found to be 1.05.

Regarding `O=c1c2ccccc2sc2cc(O)cc(O)c12`, the Ratio IC50 was found to be 0.93.

As to `CN(CCCCCCOc1cc(O)c2c(=O)c3ccccc3sc2c1)Cc1ccccc1`, the Ratio IC50 came out at 1.63.

Turning to `CCN(CCCCOc1cc(O)c2c(=O)c3ccccc3sc2c1)Cc1ccccc1`, the Ratio IC50 stood at 1.26.

`CCN(CCCOc1cc(O)c2c(=O)c3ccccc3sc2c1)Cc1ccccc1OC`: the Ratio IC50 is 4.35.

For the molecule `CCN(CCCCOc1cc(O)c2c(=O)c3ccccc3sc2c1)Cc1ccc(N(C)C)cc1`, the Ratio IC50 is 0.45.

The next series deals with Amyloid-beta precursor protein (Homo sapiens) (UniProt P05067). Description: Inhibition of self-induced amyloid beta (1 to 42) (unknown origin) aggregation at 25 uM measured after 24 hrs by ThT fluorescence assay relative to control.
Sequence of Amyloid-beta precursor protein (Homo sapiens) (P05067 whole entry): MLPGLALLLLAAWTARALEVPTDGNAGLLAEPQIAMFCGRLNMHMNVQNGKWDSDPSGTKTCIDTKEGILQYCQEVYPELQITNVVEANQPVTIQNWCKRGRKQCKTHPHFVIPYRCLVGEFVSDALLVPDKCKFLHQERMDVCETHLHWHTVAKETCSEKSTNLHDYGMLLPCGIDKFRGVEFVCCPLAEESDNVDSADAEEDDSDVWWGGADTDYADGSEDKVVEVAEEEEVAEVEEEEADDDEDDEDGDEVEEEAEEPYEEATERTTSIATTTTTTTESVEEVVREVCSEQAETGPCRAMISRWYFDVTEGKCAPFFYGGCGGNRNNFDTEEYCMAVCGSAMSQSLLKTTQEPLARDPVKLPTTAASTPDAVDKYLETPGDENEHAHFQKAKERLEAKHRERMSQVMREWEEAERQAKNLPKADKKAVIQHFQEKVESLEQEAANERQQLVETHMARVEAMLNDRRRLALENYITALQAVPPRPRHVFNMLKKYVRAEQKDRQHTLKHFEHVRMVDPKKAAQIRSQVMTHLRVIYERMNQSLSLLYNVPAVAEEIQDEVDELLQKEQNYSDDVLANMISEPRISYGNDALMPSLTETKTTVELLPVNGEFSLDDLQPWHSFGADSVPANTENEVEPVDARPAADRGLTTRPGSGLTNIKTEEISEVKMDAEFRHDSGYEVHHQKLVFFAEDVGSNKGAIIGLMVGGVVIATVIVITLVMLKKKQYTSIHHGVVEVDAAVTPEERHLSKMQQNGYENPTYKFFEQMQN
Settings: not given
In turn, `CCN(CCCCCCOc1cc(O)c2c(=O)c3ccccc3sc2c1)Cc1ccc(N(C)C)cc1` showed an inhibition of 76.3%.

As to `CCN(CCCCOc1cc(O)c2c(=O)c3ccccc3sc2c1)Cc1ccccc1N(C)C`, the inhibition stood at 72.1%.

Consider `COc1ccccc1CN(C)CCCCOc1cc(O)c2c(=O)c3ccccc3sc2c1`, for which the inhibition is 79.9%.

Turning to `O=c1c2ccccc2sc2cc(O)cc(O)c12`, the inhibition was 9.5%.

Regarding `CN(CCCCCCOc1cc(O)c2c(=O)c3ccccc3sc2c1)Cc1ccccc1`, the inhibition is 47.5%.

`CCN(CCCCOc1cc(O)c2c(=O)c3ccccc3sc2c1)Cc1ccccc1` yielded an inhibition of 75.8%.

The molecule `CCN(CCCOc1cc(O)c2c(=O)c3ccccc3sc2c1)Cc1ccccc1OC` had an inhibition of 68.2%.

As to `CCN(CCCCOc1cc(O)c2c(=O)c3ccccc3sc2c1)Cc1ccc(N(C)C)cc1`, the inhibition is 77.1%.

System in a further series: not listed separately
The experiment in a line: Inhibition of cupric ion-mediated amyloid beta (1 to 42) aggregation at 25 uM measured after 24 hrs by ThT fluorescence assay relative to control.
Settings: not given
As to `COc1cc(/C=C/C(=O)CC(=O)/C=C/c2ccc(O)c(OC)c2)ccc1O`, the inhibition turned out to be 70%.

Take `CCN(CCCCOc1ccc(-c2coc3cc(OCCCCN(CC)Cc4ccccc4OC)cc(O)c3c2=O)cc1)Cc1ccccc1OC`: the inhibition turned out to be 77.8%.

On to `CCN(CCCCCCOc1cc(O)c2c(=O)c3ccccc3sc2c1)Cc1ccc(N(C)C)cc1`, for which the inhibition turned out to be 91.3%.

`CCN(CCCCOc1cc(O)c2c(=O)c3ccccc3sc2c1)Cc1ccccc1N(C)C`: the inhibition was found to be 82.1%.

Take `COc1ccccc1CN(C)CCCCOc1cc(O)c2c(=O)c3ccccc3sc2c1`: the inhibition came out at 88%.

`O=c1c2ccccc2sc2cc(O)cc(O)c12` had an inhibition of 31.4%.

On to `CN(CCCCCCOc1cc(O)c2c(=O)c3ccccc3sc2c1)Cc1ccccc1`, for which the inhibition was found to be 76.8%.

`CCN(CCCCOc1cc(O)c2c(=O)c3ccccc3sc2c1)Cc1ccccc1` had an inhibition of 82.1%.

Regarding `CCN(CCCOc1cc(O)c2c(=O)c3ccccc3sc2c1)Cc1ccccc1OC`, the inhibition worked out at 80%.

Consider `CCN(CCCCOc1cc(O)c2c(=O)c3ccccc3sc2c1)Cc1ccc(N(C)C)cc1`, for which the inhibition came to 81.9%.

System in the next series: not listed separately
The experiment in a line: Antioxidant activity assessed as trolox equivalent of AAPH-induced radical scavenging activity at 5 uM incubated for 15 mins prior to APPH challenge measured every minute for 90 mins by ORAC-FL assay. It counts as functional.
Settings: not given
Take `COc1cc(/C=C/C(=O)CC(=O)/C=C/c2ccc(O)c(OC)c2)ccc1O`: the Activity is 2.43 µMequiv/µM.

Consider `CCN(CCCCOc1ccc(-c2coc3cc(OCCCCN(CC)Cc4ccccc4OC)cc(O)c3c2=O)cc1)Cc1ccccc1OC`, for which the Activity was 0.3 µMequiv/µM.

Turning to `CCN(CCCCCCOc1cc(O)c2c(=O)c3ccccc3sc2c1)Cc1ccc(N(C)C)cc1`, the Activity came out at 1.37 µMequiv/µM.

Consider `CCN(CCCCOc1cc(O)c2c(=O)c3ccccc3sc2c1)Cc1ccccc1N(C)C`, for which the Activity was found to be 0.95 µMequiv/µM.

As to `COc1ccccc1CN(C)CCCCOc1cc(O)c2c(=O)c3ccccc3sc2c1`, the Activity came to 1.04 µMequiv/µM.

For the molecule `O=c1c2ccccc2sc2cc(O)cc(O)c12`, the Activity is 0.42 µMequiv/µM.

As for `CN(CCCCCCOc1cc(O)c2c(=O)c3ccccc3sc2c1)Cc1ccccc1`, the Activity amounted to 0.37 µMequiv/µM.

Turning to `CCN(CCCCOc1cc(O)c2c(=O)c3ccccc3sc2c1)Cc1ccccc1`, the Activity was 1 µMequiv/µM.

On to `CCN(CCCOc1cc(O)c2c(=O)c3ccccc3sc2c1)Cc1ccccc1OC`, for which the Activity came to 0.68 µMequiv/µM.

Regarding `CCN(CCCCOc1cc(O)c2c(=O)c3ccccc3sc2c1)Cc1ccc(N(C)C)cc1`, the Activity was 1.5 µMequiv/µM.
